The nature of data set [1]: Cytotoxicity against human RD cells assessed as reduction in cell viability after 12 hrs by CCK8 assay. It is filed as cell-based. In general terms: Tetrazolium dyes change colour on reduction, which living cells bring about.
The test system of data set [2] is Coxsackievirus A16. Description: Antiviral activity against Coxsackievirus A16 TA271 infected in RD cells at replication stage assessed as appearance of cell shrinkage at 0.08 uM/L 1 hr post-infection viral inoculum was removed and cells incubated with medium containing compound and measured after 5 hrs by inverted microscopic analysis. Type of data set: functional, cell-based.

The test system of data set [3] is Coxsackievirus A16. Put plainly: Antiviral activity against Coxsackievirus A16 TA271 infected in RD cells at replication stage assessed as cell fragmentation at 0.08 uM/L 1 hr post-infection viral inoculum was removed and cells incubated with medium containing compound and measured after 5 hrs by inverted microscopic analysis. Type of data set: functional, cell-based.

Data set [4] concerns Coxsackievirus A16. Description: Antiviral activity against Coxsackievirus A16 TA271 infected in RD cells at replication stage assessed as increase in intracytoplasmic granules at 0.08 uM/L 1 hr post-infection viral inoculum was removed and cells incubated with medium containing compound and measured after 5 hrs by inverted microscopic analysis. It is filed as functional, cell-based.

Data set [5] relates to Coxsackievirus A16. Description: Antiviral activity against Coxsackievirus A16 TA271 infected in RD cells at release stage assessed as appearance of rounded cells at 0.08 uM/L preincubated with cells for 1 hr followed by replacement of fresh medium containing compounds after 5 hrs post infection and further incubated for 16 hrs post infection by inverted microscopic analysis. It is filed as functional, cell-based.

Data set [6] concerns Coxsackievirus A16. Description: Antiviral activity against Coxsackievirus A16 TA271 infected in RD cells at release stage assessed as cell detachment at 0.08 uM/L preincubated with cells for 1 hr followed by replacement of fresh medium containing compounds after 5 hrs post infection and further incubated for 16 hrs post infection by inverted microscopic analysis. It is filed as functional, cell-based.

For data set [7], the system named is Coxsackievirus A16. Put plainly: Antiviral activity against Coxsackievirus A16 LW2 infected in RD cells assessed as reduction in viral genome copies at 0.08 uM/L preincubated with viral suspension for 2 hrs followed by cell addition and measured at 24 hrs post infection by RT-PCR analysis. It is filed as functional, cell-based.
Data set [8] has as its system Coxsackievirus A16. Put plainly: Antiviral activity against Coxsackievirus A16 TA271 infected in ICR mouse assessed as reduction in viral load in lung at 2 mg/kg, im after 3 to 5 days post infection by RT-PCR analysis. It is filed as functional, organism-based.
The subject of data set [9] is Coxsackievirus A16. Description: Antiviral activity against Coxsackievirus A16 TA271 infected in ICR mouse assessed as reduction in viral load in spinal muscle at 2 mg/kg, im after 3 to 5 days post infection by RT-PCR analysis. It is filed as functional, organism-based.
Data set [10] has as its system Coxsackievirus A16. Put plainly: Antiviral activity against Coxsackievirus A16 TA271 infected in ICR mouse assessed as reduction in viral load in heart at 0.08 uM/L preincubated with viral suspension for 2 hrs followed by intramuscular administration after 3 to 5 days post infection by RT-PCR analysis. It is filed as functional.
Data set [11] relates to Coxsackievirus A16. Put plainly: Antiviral activity against Coxsackievirus A16 TA271 infected in ICR mouse assessed as reduction in muscle fiber breakage in spinal muscle at 2 mg/kg, im after 5 days post infection by H and E staining based histopathological analysis. It is filed as functional, organism-based.
Data set [12] relates to Coxsackievirus A16. Put plainly: Antiviral activity against Coxsackievirus A16 TA271 infected in ICR mouse assessed as mild alveolar fibrosis in hind limb muscle at 2 mg/kg, im after 5 days post infection by H and E staining based histopathological analysis. Type of data set: functional, organism-based.
The test system of data set [13] is Coxsackievirus A16. Put plainly: Antiviral activity against Coxsackievirus A16 TA271 infected in ICR mouse assessed as mild alveolar wall thickening in lung at 2 mg/kg, im after 5 days post infection by H and E staining based histopathological analysis. Type of data set: functional, organism-based.

The source made the active and inactive calls. The calls are words filed in the database; no cut-off is given here.

As to `CC(=O)OC(CC=C(C)C)C1=CC(=O)c2c(O)ccc(O)c2C1=O` (stereo not drawn), the CC50 – broadly, the concentration giving 50% cytotoxicity – at 12 h in data set [1] came to 9.4 µM. Besides, the outcome in the data set on Coxsackievirus A16 [2], with Coxsackievirus A16 [3], with Coxsackievirus A16 [4], in the data set on Coxsackievirus A16 [5] and with Coxsackievirus A16 [6] was inactive. The result with Coxsackievirus A16 [7], in the data set on Coxsackievirus A16 [8], in the data set on Coxsackievirus A16 [9], with Coxsackievirus A16 [10], in the data set on Coxsackievirus A16 [11] and in the data set on Coxsackievirus A16 [12] was Active. For the same compound, in the data set with Coxsackievirus A16 [13], the outcome was Active.

Source of the values: ChEMBL document CHEMBL4334442, “Effects of Acetylshikonin on the Infection and Replication of Coxsackievirus A16 in Vitro and in Vivo” (J Nat Prod, 2019).
